The values below come from patent US20230357168A1, “CARBOBICYCLIC NUCLEOSIDES FOR TREATMENT OF VIRAL INFECTION” (The Chinese University of Hong Kong, priority 2022, published 2023).

The test deals with SARS-CoV-2 viral strains (including the original Wuhan strain and Delta and Omicron variants). The test is described as follows: Replication of SARS-CoV-2 viral strains in A549-ACE2 cell model (FIG. 2). The following applies: done in triplicate. The test is classed as cell-based.

For the compound `O=c1[nH]/c(=N\O)ccn1[C@@H]1C2=CCC[C@@H](O)[C@@H]2[C@@H](O)[C@H]1O` [Compound 48, 4-(hydroxyimino)-1-((1R,2S,3R,3aR,4R)-2,3,4-trihydroxy-2,3,3a,4,5,6-hexahydro-1H-inden-1-yl)-3,4-dihydropyrimidin-2(1H)-one], the “replication of different SARS-CoV-2 viral strains” value is “inhibits the replication”.
